# Test: magnetic field-magnetization curve measured with MPMS7 (Quantum Design)
# Assay type: physicochemical
# Settings: 37 degrees Celsius (310 K)
# Excerpt: Also, FIG. 8 is a graph showing the magnetic field-magnetization curves of the Mn salen complex, the Cr salen complex, and the Fe salen complex.
compound,measurement,value
[Co+2].[O-]c1ccccc1C=NCCN=Cc1ccccc1[O-] [Co salen complex],magnetism from magnetic field-magnetization curve,paramagnetic
